Results published in publication PMC8658806, “New Carbonic Anhydrase-II Inhibitors from Marine Macro Brown Alga Dictyopteris hoytii Supported by In Silico Studies” (Molecules, 2021).
Like-named read-outs stand apart in the source and are kept apart here.

Molecular target: T1, purified bovine erythrocyte CA-II (Bos taurus, UniProt P00921)
T1 construct: purified bovine erythrocyte CA-II; from tissue; host or cells: bovine erythrocytes
Test: Carbonic anhydrase II inhibition (4-nitrophenyl acetate hydrolysis, microplate)
Assay type: biochemical
Details: for % Inhibition: preliminary screening, test concentration not given
Description: The total reaction volume of 200 µL including 20 µL of test compounds, isolated from Dictyopteris hoytii, and prepared in DMSO, followed by the addition of 140 µL of HEPES–tris buffer, 20 µL of purified bovine erythrocyte CA-II (0.1 mg/mL) prepared in buffer, and 20 µL of a solution of 4-nitrophenyl acetate. Then, 20 µL of the test compound was incubated with the enzyme carbonic anhydrase (EC 4.2.1.1) for 15 min in 96-well flat bottom plates. The rate of product formation was monitored with the addition of 20 µL of 4-NPA as substrate, prepared in methanol at the final concentration of 0.7 mM, at 25 °C for 30 min with regular intervals of 1 min, by using microplate readers (Bio-Rad, Molecular Devices, CA, USA). HEPES-tris was used as a buffer for the reaction at a final concentration of 20 mM at pH 7.4.

[1] = Table 1 and text, unit given, NA = not active, read-out: IC50 ± SEM

T1 sequence (P00921 whole entry): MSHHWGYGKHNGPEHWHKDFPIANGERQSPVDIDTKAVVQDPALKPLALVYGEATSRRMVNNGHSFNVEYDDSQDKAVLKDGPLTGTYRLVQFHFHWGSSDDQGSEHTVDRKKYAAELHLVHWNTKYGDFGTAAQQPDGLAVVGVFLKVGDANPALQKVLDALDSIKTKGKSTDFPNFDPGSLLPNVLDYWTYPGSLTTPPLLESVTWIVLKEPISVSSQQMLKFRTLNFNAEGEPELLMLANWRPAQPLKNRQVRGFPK

Compound | IC50 [1] [µM] | % Inhibition [%] | IC50 [µM] | IC50 (Table 2 repeat of Table 1 values, read-out: IC50 ± S.E.M) [µM]
O=Cc1ccccc1/C=C/C(=O)O [Compound 1, (E)-3-(2-formylphenyl)acrylic acid] | 44.9 ± 1.1 | 79.4 |  | 
COC(OC)c1ccc(/C=C/C(=O)O)cc1 [Compound 5, (E)-3-(4-(dimethoxymethyl)phenyl)acrylic acid] | 17.7 ± 2.01 | 93.9 |  | 
C=CCCCCCCCCCCCCCCCC [Compound 7, octadec-1-ene] | 16.3 ± 0.31 | 88.0 |  | 
O=Cc1ccc(C=O)cc1 [Compound 9, terephthalaldehyde] | 53.1 ± 1.2 | 93.9 |  | 
C/C=C(\CC[C@@H](C)[C@H]1CC[C@H]2[C@@H]3CC=C4C[C@@H](O)CC[C@]4(C)[C@H]3CC[C@]12C)C(C)C [Compound 15, fucosterol] |  | 69.8 | 31.3 ± 1.34 | 
CCCCCCCCCCCCCCCCCCC=CCCCCCCCC(=O)O [Compound 19, n-octacos-9-enoic acid] | 24.3 ± 1.38 | 87.3 |  | 
ethyl methyl 2-bromobenzene 1,4-dioate [Compound 13] | 39.5 ± 0.73 | 87.3 |  | 39.5 ± 0.73
